# Source: patent US9512072B2, “Biodegradable computed tomography contrast agents” (Case Western Reserve University, priority 2013, dated 2016)
# Tested on: BALB/c mice
# Experiment: In vivo blood pool CT imaging on micro-CT scanner
# Design: species or system mouse
# Settings: 350 mg-I/kg i.v.
# Method: The polymeric contrast agents and the control contrast agent, iodixanol, were evaluated with BALB/c mice (18-22 g body weight, 6 mice per agent). All the mice were scanned on the same machine as the in vitro detection. The images were obtained at an x-ray voltage of 80 kVp, an anode current of 500 μA and an exposure time of 200 ms for every rotational steps (total rotation degree is 360 and rotation steps are 180). The field of view was […]. Images were reconstructed in a 1024 pixel×1024 pixel grid with a pixel size of 18 μm×18 μm. […]
# CT values are expressed in Hounsfield Units (HU) and were obtained per organ by drawing volumetric regions of interest (RIOs). […] The average HU values and the standard deviation were calculated from the data with 3 ROIs per organ. The CT data was analyzed to determine the contrast enhancement of different agents at various time points post-injection. In vivo CT values of the regions of interest, such as heart, blood, liver and bladder, were measured to study the dynamic enhancement of different organs. […]
# The effectiveness of the iodinated polydisulfides for in vivo contrast enhanced CT imaging was assessed in BALB/c mice (18-22 g body weight, 6 mice per agent) on a micro-CT scanner with iodixanol as a control agent. […]
structure (smiles),measurement,setting,value
CC(=O)N(CC(O)CN(C(C)=O)c1c(I)c(C(=O)NCC(O)CO)c(I)c(C(=O)NCC(O)CO)c1I)c1c(I)c(C(=O)NCC(O)CO)c(I)c(C(=O)NCC(O)CO)c1I (centres unmarked) [iodixanol],vascular enhancement and delineation,10 min after injection,did not produce any enhancement
same,blood signal at its peak,pre-injection 27±30 HU,56±26 HU
